Test results published in patent US8334315B2, “Substituted aromatic carboxamide and urea derivatives as vanilloid receptor ligands” (Gruenenthal GmbH, priority 2009, dated 2012).

Legend:
hVR1 [1] = molecular target: T1, hVR1 (Homo sapiens, UniProt Q8NER1); assay: Functional test on human VR1, NADA (N-arachidonoyl dopamine) stimulus; assay type: cell-based, human being; set-up: key to Ki (human being) NADA: agonist / partial agonist / no effect: AG=agonist; pAG=partial agonist; NE=no effect; conditions: for Ki: includes values given in brackets after pAG, read-out: Ki (human being) [nM] NADA
T1 construct: expressed in transfected cells; host or cells: CHO K1 cells (ECACC), stably transfected
Source text: II. Functional Tests Carried Out on the Vanilloid Receptor (VR1)
The agonistic or antagonistic effect of the substances to be tested on the vanilloid receptor 1 (VR1) can also be determined using the following assay. In this assay, the influx of Ca^2+ through the channel is quantified with the aid of a Ca^2+-sensitive dye (type Fluo-4, Molecular Probes Europe BV, Leiden, the Netherlands) in a fluorescent imaging plate reader (FLIPR, Molecular Devices, Sunnyvale, USA).
Chinese hamster ovary cells (CHO K1 cells, European Collection of Cell Cultures (ECACC) United Kingdom) are stably transfected with the VR1 gene. For functional testing, these cells are plated out on poly-D-lysine-coated black 96-well plates having a clear base (BD Biosciences, Heidelberg, Germany) at a density of 25,000 cells/well. The cells are incubated overnight at 37° C. and 5% CO2 in a culture medium (Ham's F12 nutrient mixture, 10% by volume of FCS (foetal calf serum), 18 μg/ml of L-proline). The next day the cells are incubated with Fluo-4 (Fluo-4 2 μM, 0.01% by volume of Pluronic F127, Molecular Probes in HBSS (Hank's buffered saline solution), Gibco Invitrogen GmbH, Karlsruhe, Germany) for 30 minutes at 37° C. Subsequently, the plates are washed three times with HBSS buffer and after further incubation for 15 minutes at RT used for Ca^2+ measurement in a FLIPR assay. The Ca^2+-dependent fluorescence is measured before and after the addition of the substances to be tested (λex wavelength=488 nm, λem=540 nm). Quantification is carried out by measuring the highest fluorescence intensity (FC, fluorescence counts) over time.
The FLIPR protocol consists of 2 substance additions. First the compounds to be tested (10 μM) are pipetted onto the cells and the Ca^2+ influx is compared with the control (capsaicin 10 μM) (% activation based on the Ca^2+ signal after the addition of 10 μM of capsaicin). […]
Desensitising agonists and antagonists led to suppression of the Ca^2+ influx. The % inhibition is calculated compared to the maximum achievable inhibition with 10 μM of capsaicin.
Starting from the percentage displacement caused by different concentrations of the compounds to be tested of general formula I, IC50 inhibitory concentrations which cause a 50-per cent displacement of capsaicin were calculated. Ki values for the test substances were obtained by conversion by means of the Cheng-Prusoff equation (Cheng, Prusoff; Biochem. Pharmacol. 22, 3099-3108, 1973).
NADA=N-arachidonoyl dopamine

[2] = molecular target: T2, rat-species vanilloid receptor 1 (VR1/TRPV1) (Rattus norvegicus, UniProt O35433); assay: Functional testing on the vanilloid receptor 1, FLIPR Ca2+ influx in rat DRG cells, capsaicin; assay type: cell-based; set-up: key to Ki (rat) [nM] Cap: agonist / partial agonist / no effect: AG=agonist; pAG=partial agonist; NE=no effect; conditions: for Ki: capsaicin (Cap), includes values given in brackets after pAG
T2 construct: endogenous in cells; host or cells: primary cells dissociated from rat dorsal root ganglia (DRG), cultured 2-3 days with NGF
Source text: I. Functional Testing Carried Out on the Vanilloid Receptor 1 (VRI/TRPV1 Receptor)
The agonistic or antagonistic effect of the substances to be tested on the rat-species vanilloid receptor 1 (VR1/TRPV1) can be determined using the following assay. In this assay, the influx of Ca^2+ through the receptor channel is quantified with the aid of a Ca^2+-sensitive dye (type Fluo-4, Molecular Probes Europe BV, Leiden, the Netherlands) in a fluorescent imaging plate reader (FLIPR, Molecular Devices, Sunnyvale, USA).
Complete medium: 50 ml HAMS F12 nutrient mixture (Gibco Invitrogen GmbH, Karlsruhe, Germany) with
10% by volume of FCS (foetal calf serum, Gibco Invitrogen GmbH, Karlsruhe, Germany, heat-inactivated);
2 mM L-glutamine (Sigma, Munich, Germany);
1% by weight of AA solution (antibiotic/antimyotic solution, PAA, Pasching, Austria) and 25 ng/ml NGF medium (2.5 S, Gibco Invitrogen GmbH, Karlsruhe, Germany)
Cell culture plate: Poly-D-lysine-coated, black 96-well plates having a clear base (96-well black/clear plate, BD Biosciences, Heidelberg, Germany) are additionally coated with laminin (Gibco Invitrogen GmbH, Karlsruhe, Germany), the laminin being diluted with PBS (Ca—Mg-free PBS, Gibco Invitrogen GmbH, Karlsruhe, Germany) to a concentration of 100 μg/ml. Aliquots having a laminin concentration of 100 μg/ml are removed and stored at −20° C. The aliquots are diluted with PBS in a ratio of 1:10 to 10 μg/ml of laminin and respectively 50 μL of the solution are pipetted into a recess in the cell culture plate. The cell culture plates are incubated for at least two hours at 37° C., the excess solution is removed by suction and the recesses are each washed twice with PBS. The coated cell culture plates are stored with excess PBS which is not removed until just before the feeding of the cells.
Preparation of the Cells:
The vertebral column is removed from decapitated rats and placed immediately into cold HBSS buffer (Hank's buffered saline solution, Gibco Invitrogen GmbH, Karlsruhe, Germany), i.e. buffer located in an ice bath, mixed with 1% by volume (per cent by volume) of an AA solution (antibiotic/antimyotic solution, PAA, Pasching, Austria). The vertebral column is cut longitudinally and removed together with fasciae from the vertebral canal. Subsequently, the dorsal root ganglia (DRG) are removed and again stored in cold HBSS buffer mixed with 1% by volume of an AA solution. The DRG, from which all blood remnants and spinal nerves have been removed, are transferred in each case to 500 μL of cold type 2 collagenase (PAA, Pasching, Austria) and incubated for 35 minutes at 37° C. After the addition of 2.5% by volume of trypsin (PAA, Pasching, Austria), incubation is continued for 10 minutes at 37° C. After complete incubation, the enzyme solution is carefully pipetted off and 500 μL of complete medium are added to each of the remaining DRG. The DRG are respectively suspended several times, drawn through cannulae No. 1, No. 12 and No. 16 using a syringe and transferred to a 50 ml Falcon tube which is filled up to 15 ml with complete medium. The contents of each Falcon tube are respectively filtered through a 70 μm Falcon filter element and centrifuged for 10 minutes at 1,200 rpm and RT. The resulting pellet is respectively taken up in 250 μL of complete medium and the cell count is determined.
The number of cells in the suspension is set to 3×10^5 per ml and 150 μL of this suspension are in each case introduced into a recess in the cell culture plates coated as described hereinbefore. In the incubator the plates are left for two to three days at 37° C., 5% by volume of CO2 and 95% relative humidity. […]

hVR1 [3] = molecular target: T1, hVR1; assay: Functional test on VR1, FLIPR Ca2+ influx in transfected CHO K1 cells, capsaicin; assay type: cell-based, human being; set-up: key to Ki (human being) [nM] Cap: agonist / partial agonist / no effect: AG=agonist; pAG=partial agonist; NE=no effect; conditions: for Ki: includes values given in brackets after pAG, read-out: Ki (human being) [nM] Cap
hVR1 [4] = molecular target: T1, hVR1; assay: Functional test on hVR1 after pH stimulus; assay type: cell-based, human being; set-up: key to IC50 (human being) hVR1, pH: agonist / partial agonist / no effect: AG=agonist; pAG=partial agonist; NE=no effect; conditions: for inhibition at 10 µM: read-out: IC50 (human being) hVR1, pH: inhibition (as a percentage)
hVR1 [5] = molecular target: T1, hVR1; assay: Functional test on human VR1, 45° C. stimulus; assay type: cell-based, human being; set-up: key to IC50 (human being), 45° C.: agonist / partial agonist / no effect: AG=agonist; pAG=partial agonist; NE=no effect; conditions: for IC50: read-out: IC50 (human being) [nM], 45° C.
[6] = read-out: IC50 (human being), 45° C.: inhibition (as a percentage)

T2 sequence (O35433 whole entry): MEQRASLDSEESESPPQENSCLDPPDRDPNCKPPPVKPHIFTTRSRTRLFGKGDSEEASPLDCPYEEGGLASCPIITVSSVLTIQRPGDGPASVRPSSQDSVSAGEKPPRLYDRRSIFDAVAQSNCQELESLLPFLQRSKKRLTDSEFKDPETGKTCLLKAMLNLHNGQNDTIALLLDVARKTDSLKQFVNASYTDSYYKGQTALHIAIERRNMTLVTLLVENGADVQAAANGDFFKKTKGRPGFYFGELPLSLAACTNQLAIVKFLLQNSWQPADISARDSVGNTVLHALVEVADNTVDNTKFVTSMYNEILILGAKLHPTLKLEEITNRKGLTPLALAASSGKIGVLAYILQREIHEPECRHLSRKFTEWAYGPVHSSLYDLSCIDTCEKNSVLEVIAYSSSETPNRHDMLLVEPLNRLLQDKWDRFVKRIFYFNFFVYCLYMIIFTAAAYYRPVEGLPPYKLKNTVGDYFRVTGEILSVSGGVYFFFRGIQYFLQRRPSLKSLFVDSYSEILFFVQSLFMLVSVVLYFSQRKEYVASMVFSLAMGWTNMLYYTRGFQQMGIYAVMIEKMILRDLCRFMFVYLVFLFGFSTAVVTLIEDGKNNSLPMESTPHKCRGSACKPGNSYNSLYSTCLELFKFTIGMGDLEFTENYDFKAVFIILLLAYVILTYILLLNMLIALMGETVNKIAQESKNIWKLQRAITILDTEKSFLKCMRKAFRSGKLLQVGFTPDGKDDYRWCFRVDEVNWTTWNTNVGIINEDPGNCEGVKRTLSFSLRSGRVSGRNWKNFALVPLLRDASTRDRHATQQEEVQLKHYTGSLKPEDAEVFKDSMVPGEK
T1 sequence (Q8NER1 whole entry): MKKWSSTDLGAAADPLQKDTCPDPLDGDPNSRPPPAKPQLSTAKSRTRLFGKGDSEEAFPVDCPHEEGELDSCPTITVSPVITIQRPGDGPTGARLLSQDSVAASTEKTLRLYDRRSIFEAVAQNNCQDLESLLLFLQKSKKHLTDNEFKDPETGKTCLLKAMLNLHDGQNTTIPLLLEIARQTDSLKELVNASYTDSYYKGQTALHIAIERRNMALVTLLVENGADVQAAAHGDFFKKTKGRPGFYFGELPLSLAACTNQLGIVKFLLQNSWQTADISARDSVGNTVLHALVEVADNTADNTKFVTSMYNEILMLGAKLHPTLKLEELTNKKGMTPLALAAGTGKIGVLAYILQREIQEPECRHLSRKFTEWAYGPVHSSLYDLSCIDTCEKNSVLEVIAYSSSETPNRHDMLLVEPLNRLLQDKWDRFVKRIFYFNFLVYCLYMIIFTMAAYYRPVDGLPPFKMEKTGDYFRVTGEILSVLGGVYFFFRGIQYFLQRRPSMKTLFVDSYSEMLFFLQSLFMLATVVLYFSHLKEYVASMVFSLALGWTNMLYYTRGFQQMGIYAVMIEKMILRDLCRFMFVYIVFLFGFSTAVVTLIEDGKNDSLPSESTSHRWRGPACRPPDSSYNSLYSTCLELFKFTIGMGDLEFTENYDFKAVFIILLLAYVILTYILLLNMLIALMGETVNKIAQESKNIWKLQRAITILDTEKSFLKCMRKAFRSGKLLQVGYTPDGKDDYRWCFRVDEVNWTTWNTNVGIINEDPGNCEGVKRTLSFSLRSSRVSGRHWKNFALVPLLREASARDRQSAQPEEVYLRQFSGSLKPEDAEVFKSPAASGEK

Structure (SMILES) | Ki (human being) NADA: agonist / partial agonist / no effect (hVR1 [1]) | Ki (hVR1 [1]) | Ki [2] | Ki (hVR1 [3]; capsaicin (Cap)) | Ki (human being) [nM] Cap: agonist / partial agonist / no effect (hVR1 [3]) | inhibition at 10 µM (hVR1 [4]) | further results
CC(C(=O)NCc1cc(C(C)(C)C)nn1-c1cccc(Cl)c1)c1cccc2ccc(O)cc12 (centres unmarked) [Example 57, N-((3-tert-butyl-1-(3-chlorophenyl)-1H-pyrazol-5-yl)methyl)-2-(7-hydroxynaphthalen-1-yl)propanamide] |  | 0.1 nM | 4.2 nM | 1.6 nM |  | 13% | IC50 (hVR1 [5]): 25.6 nM
CC(C(=O)NCc1cc(C(F)(F)F)nn1-c1ccc(Cl)cc1)c1cccc2cnccc12 (centres unmarked) [Example 68, N-((1-(4-chlorophenyl)-3-(trifluoromethyl)-1H-pyrazol-5-yl)methyl)-2-(isoquinolin-5-yl)propanamide] |  | 0.04 nM |  | 0.3 nM |  | 33% | IC50 (hVR1 [5]): 245 nM
CC(C)(C)c1cc(CNC(=O)Cc2ccc3c(c2)OCCO3)n(-c2ccc(Cl)cc2)n1 [Example 12, N-((3-tert-butyl-1-(4-chlorophenyl)-1H-pyrazol-5-yl)methyl)-2-(2,3-dihydrobenzo[b][1,4]dioxin-6-yl)acetamide] |  |  | 135 nM | 77.9 nM |  |  | inhibition at 2 µM (hVR1 [1]; @ 2 μM, read-out: Ki (human being) NADA column: inhibition (as a percentage)): 58%; inhibition at 2 µM (hVR1 [5]; [6]): 18%
CC(C(=O)NCc1cc(C(C)(C)C)nn1-c1cccc(Cl)c1)c1ccc2c(c1)CCN2S(C)(=O)=O (centres unmarked) [Example 10, N-((3-tert-butyl-1-(3-chlorophenyl)-1H-pyrazol-5-yl)methyl)-2-(1-(methylsulphonyl)indolin-5-yl)propanamide] | pAG |  |  | 75.4 nM | pAG | 42% | inhibition at 2 µM (hVR1 [5]; [6]): 6%
CC(C(=O)NCc1cc(C(C)(C)C)nn1-c1cccc(Cl)c1)c1ccc2cc(O)ccc2c1 (centres unmarked) [Example 49, N-((3-tert-butyl-1-(3-chlorophenyl)-1H-pyrazol-5-yl)methyl)-2-(6-hydroxynaphthalen-2-yl)propanamide] | AG |  |  |  | AG |  | IC50 (human being) hVR1, pH: agonist / partial agonist / no effect (hVR1 [4]): AG; IC50 (human being), 45° C.: agonist / partial agonist / no effect (hVR1 [5]): AG
CC(C(=O)NCc1cc(C(C)(C)C)nn1-c1cccc(Cl)c1)c1ccc2ocnc2c1 (centres unmarked) [Example 40, 2-(benzo[d]oxazol-5-yl)-N-((3-tert-butyl-1-(3-chlorophenyl)-1H-pyrazol-5-yl)methyl)propanamide] |  | 1.1 nM | 8.4 nM | 4.2 nM |  |  | 

More lines, main results first:

Ki (human being) NADA: agonist / partial agonist / no effect (hVR1 [1]) | Ki (hVR1 [1]) | Ki [2] | Ki (hVR1 [3]; capsaicin (Cap)) | Ki (human being) [nM] Cap: agonist / partial agonist / no effect (hVR1 [3]) | inhibition at 10 µM (hVR1 [4]) | Structure (SMILES) | further results
pAG | 6.4 nM | 18.2 nM | 7.3 nM |  |  | CC(C)(C)c1cc(CNC(=O)Nc2cncc3ccccc23)n(-c2cccc(Cl)c2)n1 [Example 112, 1-((3-tert-butyl-1-(3-chlorophenyl)-1H-pyrazol-5-yl)methyl)-3-(isoquinolin-4-yl)urea] | 
AG |  |  |  | AG |  | CC(C)(C)c1cc(CNC(=O)Nc2cccc3ncccc23)n(-c2cccc(Cl)c2)n1 [Example 111, 1-((3-tert-butyl-1-(3-chlorophenyl)-1H-pyrazol-5-yl)methyl)-3-(quinolin-5-yl)urea] | IC50 (human being) hVR1, pH: agonist / partial agonist / no effect (hVR1 [4]): AG; IC50 (human being), 45° C.: agonist / partial agonist / no effect (hVR1 [5]): AG
 | 0.004 nM | 0.9 nM | 0.2 nM |  | 13% | CC(C(=O)NCc1cc(C(C)(C)C)nn1-c1ccc(F)c(Cl)c1)c1cccc2cnccc12 (centres unmarked) [Example 69, N-((3-tert-butyl-1-(3-chloro-4-fluorophenyl)-1H-pyrazol-5-yl)methyl)-2-(isoquinolin-5-yl)propanamide] | Ki (rat) [nM] Cap: agonist / partial agonist / no effect [2]: pAG; inhibition at 10 µM (hVR1 [5]; @ 10 μM, read-out: IC50 (human being), 45° C.: inhibition (as a percentage)): 26%
 | 68.1 nM |  |  |  |  | CC(C(=O)NCc1cc(C(C)(C)C)nn1-c1cccc(Cl)c1)c1ccc2cccnc2c1 (centres unmarked) [Example 71, N-((3-tert-butyl-1-(3-chlorophenyl)-1H-pyrazol-5-yl)methyl)-2-(quinolin-7-yl)propanamide] | IC50 (hVR1 [5]): 2710 nM; inhibition at 10 µM (hVR1 [3]; CHO-K1, @ 10 μM, capsaicin (Cap), read-out: Ki (human being) Cap column: inhibition (as a percentage)): 18%
pAG |  |  | 0.2 nM | pAG |  | CC(C)(C)c1cc(CNC(=O)Nc2cccc3cnccc23)n(-c2cccc(Cl)c2)n1 [Example 109, 1-((3-tert-butyl-1-(3-chlorophenyl)-1H-pyrazol-5-yl)methyl)-3-(isoquinolin-5-yl)urea] | IC50 (human being) hVR1, pH: agonist / partial agonist / no effect (hVR1 [4]): pAG; IC50 (human being), 45° C.: agonist / partial agonist / no effect (hVR1 [5]): pAG
